We go through one molecule from patent publication US7667052B2 (Eisai R&D Management Co., Ltd., priority 2003, dated 2010).

Broadly, the IC50 is the concentration that gives 50% inhibition.

Values after ≈ are worked out from the molar mass of the structure shown.

The test system of assay [1] is MOLT 4 human acute lymphoblastic cell. Kind of assay: Growth suppressing activity to leukemia cell, Alamar Blue. The format is cell-based. Particulars: MOLT-4, 72 h, MOLT4, 3 days, read-out: Multiplication suppressing activity IC50. How it is done: (§1) Dami human blood megakaryocytic cell, MOLT 4 human acute lymphoblastic cell, K562 human chronic myelogenous cell, U937 human histcytic lymphoma and p388 mouse lymphoma cultured in RPMI 1640 (manufactured by SIGMA Co., Ltd.) containing 10% fetal calf serum were dispensed in 96-well plates by 2×10^3 cells/180 μl, and they were cultured at 37° C. overnight in a CO2 incubator (5% CO2). Then, 20 μL of the above-mentioned incubation solution containing 11107B diluted with 2-fold succession was added, and they were further cultured in a CO2 incubator for 3 days.
(§2) 20 μL of Alamar Blue reagent (Biosource Co.) was added to the cultured cell, and fluorescence activity (ex 530 nm/em 590 nm) was measured by a micro plate reader (ARBO, Perkin-Elmer Co.) after 3 to 5 hours. The cell growth of the control to which the compound is not added is set as 100%, the concentration at which it was suppressed by 50% was determined.
Background: Resazurin is reduced to fluorescent resorufin, in cell work by metabolically active cells.

The test system of assay [2] is K562 human chronic myelogenous cell. The assay is described as above. The conditions noted are these: 72 h, K562, 3 days, read-out: Multiplication suppressing activity IC50. It is filed as cell-based. How it is done: as §1, §2
The subject of assay [3] is Dami human blood megakaryocytic cell. The description is as above. The format is cell-based. Particulars: 72 h, 3 days, read-out: Multiplication suppressing activity IC50. How it is done: as §1, §2
The subject of assay [4] is U937 human histcytic lymphoma. The description is as above. It is filed as cell-based. Particulars: U-937, 72 h, U937, 3 days, read-out: Multiplication suppressing activity IC50. How it is done:
as §1, §2

In assay [5] the test system is p388 mouse lymphoma. Described as above. Particulars: 72 h, p388, 3 days, read-out: Multiplication suppressing activity IC50. It is filed as cell-based. How it is done:
as §1, §2

The subject of assay [6] is VEGF production in U251 human glioma cell. The assay is described as follows: VEGF production suppressing action under low oxygen, ELISA. The format is cell-based. Particulars: U251, low oxygen stimulation. How it is done:
U251 human glioma cell cultured in DULBECCO-modified eagle medium (DMEM; manufactured by SIGMA Co., Ltd.) containing 10% fetal calf serum, penicillin (100 unit/ml) and streptomycin (100 μg/ml) was dispensed in 96-well plates by 4×10^4 cells/well. After culturing at 37° C. overnight in a CO2 incubator (5% CO2), the media were removed, and 180 μl of the above-mentioned incubation solution was charged. After adding 20 μL of the above-mentioned incubation solution containing the test compound diluted with 3-fold succession, they were incubated in a low oxygen (2% O2) incubator for 18 hours. The supernatants thereof were measured by an ELISA kit (Immunobiology Research Institute).
Concentration at which the amount of VEGF expressed by low oxygen stimulation was suppressed to 50% (IC50 value) was determined and results are shown in Table 9. […] The activities of 11107F and 11107G were very weak.

The subject of assay [7] is H460, U251, BSY-1, MDA-MB435, PC-3, DU145, OVCAR-3, WiDr and B16 melanoma cells. The assay is described as follows: Growth suppressing activity to various cancer cells, Alamar Blue. The format is cell-based, human; mouse. The conditions noted are these: 72 h; range over nine cancer cell lines, 3 days; read-out: growth suppressing activity IC50 values for the studied cell lines. How it is done: H460 human lung cancer cell, U251 human glioma cell, BSY-1 and MDA-MB435 human breast cancer cell, PC-3 and DU145 human prostate cancer cell, OVCAR-3 human ovarian cancer cell, WiDr human colon cancer cell and B16 melanoma mouse melanoma cell cultured in DMEM (manufactured by SIGMA Co., Ltd.) containing 10% fetal calf serum were dispensed in 96-well plates by 2×10^3 cells/180 μl, and they were cultured at 37° C. overnight in a CO2 incubator (5% CO2). Then, 20 μL of the above-mentioned incubation solution containing test compounds diluted with 2-fold succession was added, and they were further cultured in a CO2 incubator for 3 days.
20 μL of Alamar Blue reagent (Biosource Co.) was added to the cultured cells, and after 3 to 5 hours, fluorescence activity (ex 530 nm/em 590 nm) was measured by a micro plate reader (ARBO, Perkin-Elmer Co.). The cell growth of the control to which the compound is not added is set as 100%, the concentration at which it was suppressed by 50% was determined.

Assay [8] deals with human breast cancer BSY-1 cell. Kind of assay: Solid cancer proliferation suppressing action, subcutaneous transplant. It is filed as in vivo, mice. The conditions noted are these: single administration, 10 mg/kg intravenous. How it is done:
In order to study solid cancer proliferation suppressing action of 11107B in vivo, human breast cancer BSY-1 cell was transplanted to the subcutaneous body sides of mice. The animals were grouped so that the average of the volumes of the respective groups became uniform, when it reached about 100 mm^3. Control group was made as 10 mice and 11107B-administering groups were made as 5 mice. 11107B was administrated for the 11107B-administering groups once by intravenous injection so as to be 10 mg/kg, and a vehicle was administered to the control group. The tumor volumes on the fifth day, eighth day, 12th day and 15th day were measured, and relative tumor volumes were determined setting the tumor volume at the initiation of administration as 1.

Assay [9] relates to VEGF production in PC3 human prostate cancer cell. Kind of assay: VEGF production suppressing action in various carcinoma cells, ELISA. It is filed as cell-based. Particulars: PC 3, low oxygen 18 hours. How it is done: (§3) WiDr human colon cancer cell, PC3 human prostate cancer cell, DU145 human […] cancer cell and HT1080 human […] cancer cell, which were cultured in DULBECCO-modified eagle medium (manufactured by DMEM SIGMA Co., Ltd.) containing 10% fetal calf serum, penicillin (100 unit/ml) and streptomycin (100 μg/ml) were dispensed in 96 well plates by 3×10^4 cells/well. After culturing at 37° C. overnight in a CO2 incubator (5% CO2), the media were removed, and 180 μl of the above-mentioned incubation solution was charged. After adding 20 μL of the above-mentioned incubation solution containing the test compound diluted with 3-fold succession, they were incubated in a low oxygen ([…]) incubator for 18 hours. The supernatants thereof were measured by an ELISA kit (Immunobiology Research Institute).
(§4) Concentration at which the amount of VEGF expressed by low oxygen stimulation was suppressed to 50% (IC50 value) was determined and results are shown in Table 10.
In general terms: ELISA stands for enzyme-linked immunosorbent assay.

Assay [10] relates to VEGF production in HT1080. Described as above. The format is cell-based. The conditions noted are these: Homo sapiens; HT 1080, low oxygen 18 hours. How it is done:
as §3, §4

Assay [11] relates to VEGF production in WiDr human colon cancer cell. The assay is described as above. The format is cell-based. The conditions noted are these: low oxygen 18 hours. How it is done:
as §3, §4

In assay [12] the test system is VEGF production in DU145 human colon cancer cell. The assay is described as above. Particulars: DU-145, low oxygen 18 hours. It is filed as cell-based. How it is done:
as §3, §4

Regarding `CCC(O)C(C)C1OC1CC(C)/C=C/C=C(\C)C1OC(=O)CC(O)CCC(C)(O)C(OC(C)=O)/C=C/C1C` (stereo not drawn) [11107B], the half-inhibitory concentration (IC50) in [1] was 1.5 nM; in [2] it was 2.1 nM; in assay [3], 1.2 nM; in assay [4], 1.1 nM; in assay [5] it was 2 nM; in assay [7], 0.9 to 2.9 nM. Moreover, the half-maximal inhibitory concentration (IC50) in assay [9] stood at 0.71 ng/mL (≈ 1.32 nM); in [10], 1.89 ng/mL (≈ 3.52 nM); in assay [11] it was 0.65 ng/mL (≈ 1.21 nM); in assay [12], 1.05 ng/mL (≈ 1.96 nM). Besides, in assay [6], the “VEGF production suppression, in words” value is recorded as “suppressed most strongly VEGF production”. Further, the “solid tumor suppression, in words” value in assay [8] is reported as “showed the effect of suppressing solid tumor”.
